Results reported in ChEMBL document CHEMBL4476870, “Arf6 inhibitors and methods of synthesis and use thereof” (2017).
The source made the active and inactive calls. No cut-off for these calls is given here.

Tests used:
Mus musculus [1] = test: Inhibition of VEGF-induced retinal permeability in mouse at 5 ug dosed as single intraocular injection followed by Evan blue dye injection 6 hrs post drug dose and measured after 2 hrs; format: functional, organism-based
Mus musculus [2] = test: Reduction in oxygen-induced retinopathy in mouse placed in 75% oxygen-environment from day 5 to 12 assessed as reduction in neovascularization at 5 ug dosed via intraocular injection on day 12 and 15 and measured on day 17; format: functional, organism-based
Mus musculus [3] = test: Inhibition of choroidal neovascularization in mouse with laser-induced Bruch's membrane disruption at 5 ug dosed on day 0 and 7 and measured on day 14; format: functional, organism-based
Mus musculus [4] = test: Inhibition of VEGF-induced retinal permeability in mouse at 500 ng dosed as single intraocular injection followed by Evan blue dye injection 6 hrs post drug dose and measured after 2 hrs; format: functional, organism-based
Mus musculus [5] = test: Reduction in LPS-induced acute lung injury in mouse assessed as reduction in protein concentration at 60 mg/kg dosed 4 hrs post LPS challenge; format: functional, organism-based
Homo sapiens [6] = species: Homo sapiens; test: Antiproliferative activity against human LOX cells assessed as inhibition of cell proliferation at >1 uM by WST8 dye based colorimetric assay; format: functional
LN-229 = test: Antiproliferative activity against human LN229 cells assessed as inhibition of cell proliferation at >1 uM by WST8 dye based colorimetric assay; format: functional
Mus musculus [7] = test: Inhibition of choroidal neovascularization in mouse with laser-induced Bruch's membrane disruption dosed on day 0 and 7 and measured on day 14; format: functional, organism-based
[8] = Antiinvasive activity against human LOX cells assessed as inhibition of 5% FBS-induced cell invasion at 1 uM by Matrigel based cell invasion assay; format: functional
Mus musculus [9] = test: Reduction in LPS-induced acute lung injury in mouse assessed as reduction in protein concentration at 60 mg/kg dosed 3 hrs post LPS challenge; format: functional, organism-based
Rattus norvegicus = test: Inhibition of VEGF-induced retinal permeability in rat assessed as reduction in vascular leak at 60 mg/kg, ip dosed 1 hr before VEGF injection on day1 followed by Evan blue dye injection on day2 and measured on day 3; format: functional, organism-based
Mus musculus [10] = test: Inhibition of VEGF-induced retinal permeability in mouse at 50 ng dosed as single intraocular injection followed by Evan blue dye injection 6 hrs post drug dose and measured after 2 hrs; format: functional, organism-based
Mus musculus [11] = test: Reduction in LPS-induced acute lung injury in mouse assessed as reduction in number of cells in BALF at 60 mg/kg dosed 4 hrs post LPS challenge; format: functional, organism-based
[12] = target: PH and SEC7 domain-containing protein 1 (Mus musculus) (UniProt Q5DTT2); test: Inhibition of Arf6 activation in mouse NIH/3T3 cells assessed as effect on GTP-bound Arf6 incubated for 4 hrs immobilized GST-tagged Gga3 by based pull down assay; format: cell-based
PH and SEC7 domain-containing protein 1 (Mus musculus), sequence (Q5DTT2 whole entry, the tested form may be a part): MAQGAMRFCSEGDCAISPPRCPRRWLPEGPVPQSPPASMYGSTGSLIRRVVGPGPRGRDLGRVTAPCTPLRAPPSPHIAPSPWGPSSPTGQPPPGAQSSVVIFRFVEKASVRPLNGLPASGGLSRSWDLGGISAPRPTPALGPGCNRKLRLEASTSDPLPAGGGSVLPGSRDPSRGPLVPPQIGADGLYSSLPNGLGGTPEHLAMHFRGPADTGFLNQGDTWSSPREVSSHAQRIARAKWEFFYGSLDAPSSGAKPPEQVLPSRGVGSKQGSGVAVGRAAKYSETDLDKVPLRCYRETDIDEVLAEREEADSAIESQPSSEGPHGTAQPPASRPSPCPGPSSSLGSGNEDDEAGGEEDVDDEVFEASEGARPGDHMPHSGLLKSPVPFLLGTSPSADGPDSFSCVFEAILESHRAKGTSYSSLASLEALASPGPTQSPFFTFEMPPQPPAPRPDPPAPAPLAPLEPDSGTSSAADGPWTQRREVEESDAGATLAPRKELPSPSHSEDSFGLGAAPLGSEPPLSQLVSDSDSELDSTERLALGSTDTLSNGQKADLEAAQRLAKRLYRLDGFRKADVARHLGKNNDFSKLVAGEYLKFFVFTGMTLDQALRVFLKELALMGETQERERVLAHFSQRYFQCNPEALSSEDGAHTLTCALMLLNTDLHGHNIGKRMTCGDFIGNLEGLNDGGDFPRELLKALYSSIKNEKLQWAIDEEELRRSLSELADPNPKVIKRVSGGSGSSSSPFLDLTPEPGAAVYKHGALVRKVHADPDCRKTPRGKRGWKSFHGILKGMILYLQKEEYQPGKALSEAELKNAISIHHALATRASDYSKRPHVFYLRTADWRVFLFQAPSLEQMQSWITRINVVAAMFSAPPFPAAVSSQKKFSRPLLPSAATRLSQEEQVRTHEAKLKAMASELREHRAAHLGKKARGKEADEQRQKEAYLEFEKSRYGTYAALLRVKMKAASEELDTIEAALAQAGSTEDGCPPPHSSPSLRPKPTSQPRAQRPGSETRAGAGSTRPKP

Mus musculus [13] = test: Reduction in LPS-induced acute lung injury in mouse assessed as reduction in number of cells in BALF at 60 mg/kg dosed 3 hrs post LPS challenge; format: functional, organism-based
Mus musculus [14] = test: Reduction in LPS-induced acute lung injury in mouse assessed as reduction in number of cells in BALF at 5 mg/kg dosed 2 hrs post LPS challenge; format: functional, organism-based
Mus musculus [15] = test: Reduction in LPS-induced acute lung injury in mouse assessed as reduction in protein concentration at 5 mg/kg dosed 2 hrs post LPS challenge; format: functional, organism-based
Influenza A virus = test: Antiviral activity against Influenza A virus (H1N1) infected in mouse assessed as reduction in virus-infection induced mortality by measuring mouse survival at 20 mg/kg, ip qd for 5 days dosed 4 hrs before virus infection; format: functional, organism-based
Mus musculus [16] = test: Anti-inflammatory activity in mouse model of collagen-induced arthritis assessed as reduction in arthritic index at 10 to 60 mg/kg, BID for 14 days and measured up to 15 days post dose; format: functional, organism-based
Homo sapiens [17] = species: Homo sapiens; test: Antiinvasive activity against human LOX cells assessed as inhibition of 5% FBS-induced cell invasion at 30 uM by Matrigel based cell invasion assay; format: functional

## CN(C)c1ccc(/C=C2/C(=O)Nc3ccccc32)cc1
Mus musculus [1]
  inhibition: inactive
Mus musculus [2]
  inhibition: Active
Mus musculus [3]
  inhibition: Active

## O=c1cc(-c2ccc([N+](=O)[O-])cc2)[nH]c2c(-c3ccc(Cl)cc3)c(Cc3ccccc3)nn12
Mus musculus [4]
  inhibition: Active
Mus musculus [5]
  inhibition: Active
Homo sapiens [6]
  inhibition: Active
LN-229
  inhibition: Active
Mus musculus [7]
  inhibition: Dose-dependent effect
Mus musculus [2]
  inhibition: Active
[8]
  inhibition at 1 µM: 100%
Mus musculus [9]
  inhibition: Active
Rattus norvegicus
  inhibition: Active
Mus musculus [10]
  inhibition: Active
Mus musculus [11]
  inhibition: Active
[12]
  inhibition: Active
Mus musculus [13]
  inhibition: Active

## C[C@@H]1C[C@H]2[C@@H]3CCC4=CC(=O)C=C[C@]4(C)[C@@]3(F)[C@@H](O)C[C@]2(C)[C@@]1(O)C(=O)CO
Mus musculus [14]
  inhibition: Active
Mus musculus [15]
  inhibition: Active

## O=c1cc(Cc2ccccc2)[nH]c2c(-c3ccc(Cl)cc3)c(C(F)(F)F)nn12
Mus musculus [4]
  inhibition: Active
Influenza A virus
  Activity: Active

## O=c1cc(-c2cccc(Oc3ccccc3)c2)[nH]c2c(-c3ccc(Cl)c(Cl)c3)c(C(F)(F)F)nn12
Mus musculus [2]
  inhibition: Active
Mus musculus [16]
  Activity: Dose-dependent effect

## COc1nc(-c2ccc3c(c2)OCO3)n(-c2ccc(NC(=O)CSc3ccccc3)cc2)n1
Homo sapiens [17]
  inhibition: Active

## COc1ccc(-c2c(Cc3ccccc3)nn3c(=O)cc(C)[nH]c23)cc1
Mus musculus [4]
  inhibition: Active
